In patent US20130331332A1, “COMPOSITION COMPRISING PEROXISOME PROLIFERATOR-ACTIVATED RECEPTOR-GAMMA” (MERZ PHARMA GmbH & Co. KGaA, priority 2011, published 2013):

Experiments:
Type in all cases: cell-based, human
[1] = system: adipose-derived stem cells (ASC); assay: Induction of adipocyte differentiation by PPARgamma, oil red O staining (Example 2); conditions: PPARgamma 0.0001%, 0.01% and 1% by weight in culture media; 5 days incubation, further 9 days in culture; oil red O staining of lipid droplets
Description: The ability of peroxisome proliferator-activated receptor-gamma to induce differentiation of adipocytes was studied in adipose-derived stem cells (ASC). Human adipose-derived stem cells were obtained by liposuction and cultured following a published procedure (Crandall et al, Endocrinology 140:154-8, 1999). In brief, adipose tissue was digested with 2 mg/mL collagenase in Krebs-Ringer-bicarbonate buffer (pH 7.4). The preadipocyte fraction was resuspended in growth medium, transferred to a culture flask, and maintained in an incubator at 37° C., and 5% CO2. Cell attachment was allowed for 16-20 h and afterwards the cells that had not adhered were removed.
Peroxisome proliferator-activated receptor-gamma (PPARgamma) was added to respective final concentrations of 0.0001%, 0.01% and 1% by weight to the culture media 24 hours after the cells were seeded. The media was changed every three days and supplemented with fresh peroxisome proliferator-activated receptor-gamma. The cells were incubated with peroxisome proliferator-activated receptor-gamma for 5 days. Afterwards peroxisome proliferator-activated receptor-gamma was removed, and the cells were kept for further 9 days in culture for observation of lipid droplet formation, which is indicative of the ability to differentiate. Controls were run in medium without peroxisome proliferator-activated receptor-gamma. […]

[2] = system: adipose-derived stem cells; assay: Cell proliferation of adipose-derived stem cells, MTT photometric assay (Example 4); conditions: 6 days, FIG. 1
Description: Cell proliferation was determined by a photometric assay using MTT (3-(4,5-dimethylthiazol-2-yl)-2,5-diphenyltetrazolium bromide). In brief, human adipose-derived stem cells were isolated from 5 different donors according to example 3 and 1.5×10^4 cells were seeded in 96-well-plates. Cell samples were used in quadruplicate in each experiment. The human adipose-derived stem cells were cultured for 6 days in two different media containing PPARγ or control media. Recombinant PPARγ (recPPARγ) (Thermo Scientific-Pierce, PPARgamma human) was solved in dimethyl sulfoxide (DMSO) at a concentration of 270 µg/ml and used as a stock solution. Working solutions were prepared by dilution using a factor of 1:100 for a final concentration of 2.7 μg/ml, a factor of 1:270 for a final concentration of 1 μg/ml, a factor of 1:540 for a final concentration of 0.5 μg/ml, and a factor of 1:2700 for a final concentration of 0.1 μg/ml. […]
After 6 days of culturing, the cells were incubated in PBS containing MTT at 37° C. for 4 hours. Afterwards, the medium was removed, 0.04 N HCl was added, and absorbance was measured in a microplate reader at 550 nm versus 650 nm. […]

[3] = system: adipose-derived stem cells; assay: Photometric measurement (optical density) of adipogenic differentiation in adipose-derived stem cells (Example 5); conditions: 2 weeks of culturing, FIG. 2
Description: The induction of adipogenic differentiation by recombinant PPARγ was tested in human adipose-derived stem cells from 4 different donors isolated as described in example 3. The cells were cultured for 2 weeks, and media were changed every 5-6 days. Cell samples were seeded with 1.5×10^4 cells in 96-well-plates. Recombinant PPARγ (recPPARγ) (Thermo Scientific-Pierce, PPARgamma human) was solved in dimethyl sulfoxide (DMSO) at a concentration of 270 µg/ml and used as a stock solution. Working solutions were prepared by dilution using a factor of 1:100 for a final concentration of 2.7 μg/ml, a factor of 1:270 for a final concentration of 1 μg/ml, a factor of 1:540 for a final concentration of 0.5 μg/ml, and a factor of 1:2700 for a final concentration of 0.1 μg/ml.
Cells were cultured in two different media, either in “NM”, a standard culture medium of Dulbecco's modified Eagle's medium with a physiologic glucose concentration of 100 mg/dl (DMEM, Sigma, Germany) supplemented with 10% fetal calf serum (FCS; PAA, Germany), or in “AM-” composed of DMEM with 4500 mg/l glucose (high glucose) and 10 μM insulin (Novo Nordisk), 1 μM dexamethasone (Ratiopharm), and 10% FCS. Cell samples were cultured in NM containing 2.7 μg/ml, 1 μg/ml, 0.5 μg/ml, or 0.1 μg/ml of PPARγ, respectively. […] After 2 weeks of culturing, the optical density was measured in a microplate reader. […]

[4] = system: adipose-derived stem cells (ASCs); assay: Oil-O-Red staining of fat vacuoles in adipose-derived stem cells (Example 6); conditions: for formation of fat vacuoles / adipogenic differentiation (Oil-O-Red staining): PPARγ 2.7, 1, 0.5 or 0.1 μg/ml; for adipogenic differentiation / development of fat vacuoles (Oil-O-Red staining): 3 weeks of incubation in NM
Description: The induction of adipogenic differentiation by recombinant PPARγ was verified by Oil-O-Red staining of fat vacuoles. Human adipose-derived stem cells (ASCs) from 4 different donors were isolated as described in example 3. The cells were cultured for 2 weeks in “NM”, a standard culture medium of Dulbecco's modified Eagle's medium with a physiologic glucose concentration of 100 mg/dl (DMEM, Sigma, Germany) supplemented with 10% fetal calf serum (FCS; PAA, Germany) and medium was changed every 5-6 days. Cells were cultured in NM containing 2.7 μg/ml, 1 μg/ml, 0.5 μg/ml, or 0.1 μg/ml of PPARγ (Thermo Scientific-Pierce, PPARgamma human), respectively, or 5 μM Pioglitazone (Sigma-Aldrich, Germany), or 5 μM Pioglitazone and 2.7 μg/ml PPARγ, or 5 μM Pioglitazone and 0.1 μg/ml PPARγ. Controls were cultured in NM.
After 2 weeks in culture the formation of lipid droplets which is indicative of the ability to differentiate was verified by Oil-O-Red staining. Oil-O-Red is a fat-soluble dye used for the staining of neutral triglycerides. […] After fixation with 4% paraformaldehyde for 20 minutes, the cells were incubated for a staining time of 1 hour with a 0.5% Oil-O-Red (Sigma) solution in Isopropanol/glycerine. The Oil-O-Red staining was evaluated microscopically.
Further cells were cultured in NM containing 5 μM Pioglitazone (Sigma-Aldrich, Germany), or 5 μM Pioglitazone and 2.7 μg/ml PPARγ, or 5 μM Pioglitazone and 0.1 μg/ml PPARγ.
Further cell samples were cultured in “AM-” composed of DMEM with 4500 mg/l glucose, 10 μM insulin (Novo Nordisk), 1 μM dexamethasone (Ratiopharm), 10% FCS. Cell samples were cultured in AM- containing 2.7 μg/ml, 1 μg/ml, 0.5 μg/ml, or 0.1 μg/ml of PPARγ, respectively, or 5 μM Pioglitazone, or 5 μM Pioglitazone and 2.7 μg/ml PPARγ. Negative control cells were cultured in AM-. Cells incubated with DMEM with 4500mg/l glucose, 10 μM insulin (Novo Nordisk), 1 μM dexamethasone (Ratiopharm), 10% FCS and 1 mM isobutyl-methylxanthin (Sigma) and 200 μM indometacin (Fluka) were used as a positive induction control.
Culturing of cells in NM and in AM- containing the different PPARγ concentrations as given above was repeated with an incubation period of 3 weeks.

PPARγ: Recombinant PPARγ protein (Thermo Scientific-Pierce, PPARgamma human); nuclear hormone receptor transcription factor
Degree of differentiation [1]: ++ to +++
cell proliferation (MTT assay) ([2]; 2.7, 1, 0.5 or 0.1 μg/ml PPARγ, both media (NM and AM-)): stimulated the proliferation of the adipose-derived stem cells in a dose-dependent manner
cytotoxic effect on cells (cell number by optical density) ([3]; 2.7-0.1 μg/ml PPARγ): no cytotoxic effect
differentiation and proliferation (increase in optical density) ([3]; both media (NM and AM-)): stimulated the differentiation and proliferation
formation of fat vacuoles / adipogenic differentiation (Oil-O-Red staining) ([4]; 2 weeks of culture in AM- medium): able to induce the formation of fat vacuoles
formation of fat vacuoles / adipogenic differentiation (Oil-O-Red staining) ([4]; 2 weeks of culture in NM, Pioglitazone 5 μM, FIG. 3): able to induce the formation of fat vacuoles
formation of fat vacuoles and adipogenic differentiation (Oil-O-Red staining) ([4]; 3 weeks of culture in AM- medium): induced the formation of fat vacuoles and adipogenic differentiation
adipogenic differentiation / development of fat vacuoles (Oil-O-Red staining) [4]: heavily induced adipogenic differentiation

CCc1ccc(CCOc2ccc(CC3SC(=O)NC3=O)cc2)nc1 (racemic) [Pioglitazone, (RS)-5-{p-[2-(5-ethyl-2-pyridyl)ethoxy]benzyl}-2,4-thiazolidinedione, reference compound]
cell proliferation (MTT assay) ([2]; 5 μM Pioglitazone alone, NM standard medium): no effect
adipogenic differentiation / development of fat vacuoles (Oil-O-Red staining) [4]: only slightly induced differentiation
